Experimental data as given in ChEMBL document CHEMBL3879893, “Nuclear transport modulators and uses thereof” (2011).
The source made the active and inactive calls. No cut-off for these calls is given here.

Legend:
Jurkat = experiment: Cytotoxicity against human Jurkat cells after 72 hrs by CellTiter96 AQueous one solution cell proliferation assay; assay type: functional, cell-based
Exportin-1 [1] = molecular target: T1, Exportin-1 (Homo sapiens, UniProt O14980); experiment: Inhibition of Crm1 in human U2OS cells expressing GFP-fused HIV1 Rev assessed as decrease in nuclear export of GFP-fused HIV1 Rev after 1 hr by Hoechst 33258 staining-based assay; assay type: cell-based
PC-3 = experiment: Cytotoxicity against human PC3 cells after 72 hrs by CellTiter96 AQueous one solution cell proliferation assay; assay type: functional, cell-based
MCF7 = experiment: Cytotoxicity against human MCF7 cells after 72 hrs by CellTiter96 AQueous one solution cell proliferation assay; assay type: functional, cell-based
4T1 = experiment: Cytotoxicity against mouse 4T1 cells after 72 hrs by CellTiter96 AQueous one solution cell proliferation assay; assay type: functional, cell-based
BL-41 = experiment: Cytotoxicity against human BL41 cells after 72 hrs by CellTiter96 AQueous one solution cell proliferation assay; assay type: functional, cell-based
Homo sapiens [2] = species: Homo sapiens; experiment: Cytotoxicity against human LS123 cells after 72 hrs by CellTiter96 AQueous one solution cell proliferation assay; assay type: functional, cell-based
Exportin-1 [3] = molecular target: T1, Exportin-1; experiment: Inhibition of Crm1 in human HS-Sultan cells assessed as potentiation of bortezomib-induced antiproliferative activity by measuring cell survival at 30 to 300 nM after 72 hrs by MTT assay; assay type: cell-based
HCC827 = experiment: Cytotoxicity against human HCC827 cells after 72 hrs by CellTiter96 AQueous one solution cell proliferation assay; assay type: functional, cell-based
786-0 = experiment: Cytotoxicity against human 786-0 cells after 72 hrs by CellTiter96 AQueous one solution cell proliferation assay; assay type: functional, cell-based
MM1.S [4] = experiment: Antitumor activity against 130 mm'3 human MM1S cells xenografted in mouse assessed as tumor growth inhibition at 150 mg/kg, sc qd administered for 5 days; assay type: functional, organism-based
LS180 = experiment: Cytotoxicity against human LS180 cells after 72 hrs by CellTiter96 AQueous one solution cell proliferation assay; assay type: functional, cell-based
NCI-H520 = experiment: Cytotoxicity against human NCI-H520 cells after 72 hrs by CellTiter96 AQueous one solution cell proliferation assay; assay type: functional, cell-based
[5] = Antitumor activity against 350 mm'3 human HCT116 cells xenografted in mouse assessed as tumor growth inhibition at 150 mg/kg, sc qd administered for 5 days started on day 9 post 75 mg/kg dosing measured after day 24 relative to control; assay type: functional, HCT-116
Exportin-1 [6] = molecular target: T1, Exportin-1; experiment: Inhibition of Crm1 in human MM1R cells assessed as potentiation of bortezomib-induced antiproliferative activity by measuring cell survival at 30 to 300 nM after 72 hrs by MTT assay; assay type: cell-based
NCI-H460 = experiment: Cytotoxicity against human NCI-H460 cells after 72 hrs by CellTiter96 AQueous one solution cell proliferation assay; assay type: functional, cell-based
[7] = Toxicity in mouse xenografted with 350 mm'3 human HCT116 cells assessed as effect on clinical chemistry parameters at 150 mg/kg, sc qd administered for 5 days started on day 9 post 75 mg/kg dosing; assay type: organism-based, HCT-116; settings: in vivo, 120 h
MG-63 = experiment: Cytotoxicity against human MG63 cells after 72 hrs by CellTiter96 AQueous one solution cell proliferation assay; assay type: functional, cell-based
Exportin-1 [8] = molecular target: T1, Exportin-1; experiment: Inhibition of Crm1 in human Jurkat cells assessed as potentiation of bortezomib-induced antiproliferative activity by measuring cell survival at 30 to 300 nM after 72 hrs by MTT assay; assay type: cell-based
NCI-H2030 = experiment: Cytotoxicity against human NCI-H2030 cells after 72 hrs by CellTiter96 AQueous one solution cell proliferation assay; assay type: functional, cell-based
MM1.S [9] = experiment: Antitumor activity against 1300 mm'3 human MM1S cells xenografted in mouse assessed as tumor growth inhibition at 150 mg/kg, sc qd administered for 5 days; assay type: functional, organism-based
DLD-1 = experiment: Cytotoxicity against human DLD1 cells after 72 hrs by CellTiter96 AQueous one solution cell proliferation assay; assay type: functional, cell-based
HCT-116 = experiment: Cytotoxicity against human HCT116 cells after 72 hrs by CellTiter96 AQueous one solution cell proliferation assay; assay type: functional, cell-based
NCI-H226 = experiment: Cytotoxicity against human NCI-H226 cells after 72 hrs by CellTiter96 AQueous one solution cell proliferation assay; assay type: functional, cell-based
Caov-3 = experiment: Cytotoxicity against human Caov3 cells after 72 hrs by CellTiter96 AQueous one solution cell proliferation assay; assay type: functional, cell-based
RPMI18226 = experiment: Cytotoxicity against human […] cells after 72 hrs by CellTiter96 AQueous one solution cell proliferation assay; assay type: functional, cell-based
WiDr = experiment: Cytotoxicity against human WiDr cells after 72 hrs by CellTiter96 AQueous one solution cell proliferation assay; assay type: functional, cell-based
SW480 = experiment: Cytotoxicity against human SW480 cells after 72 hrs by CellTiter96 AQueous one solution cell proliferation assay; assay type: functional, cell-based
[10] = Antitumor activity against 350 mm'3 human HCT116 cells xenografted in mouse assessed as tumor growth inhibition at 75 mg/kg, sc qd administered for 5 days measured after day 24 relative to control; assay type: functional; settings: HCT-116, sc, read-out: TGI
MM1R = experiment: Cytotoxicity against human MM1R cells after 72 hrs by CellTiter96 AQueous one solution cell proliferation assay; assay type: functional, cell-based
[11] = Toxicity in mouse xenografted with 350 mm'3 human HCT116 cells assessed as effect on complete blood count at 150 mg/kg, sc qd administered for 5 days started on day 9 post 75 mg/kg dosing; assay type: organism-based, HCT-116; settings: in vivo, 120 h
LoVo = experiment: Cytotoxicity against human LoVo cells after 72 hrs by CellTiter96 AQueous one solution cell proliferation assay; assay type: functional, cell-based
Exportin-1 [12] = molecular target: T1, Exportin-1; experiment: Inhibition of Crm1 in human MM1S cells assessed as potentiation of bortezomib-induced antiproliferative activity by measuring cell survival at 30 to 300 nM after 72 hrs by MTT assay; assay type: cell-based
HCT-15 = experiment: Cytotoxicity against human HCT15 cells after 72 hrs by CellTiter96 AQueous one solution cell proliferation assay; assay type: functional, cell-based
HCT-8 = experiment: Cytotoxicity against human HCT8 cells after 72 hrs by CellTiter96 AQueous one solution cell proliferation assay; assay type: functional, cell-based
NCI-H1838 = experiment: Cytotoxicity against human NCI-H1838 cells after 72 hrs by CellTiter96 AQueous one solution cell proliferation assay; assay type: functional, cell-based
HCC4006 = experiment: Cytotoxicity against human HCC4006 cells after 72 hrs by CellTiter96 AQueous one solution cell proliferation assay; assay type: functional, cell-based
DU-145 = experiment: Cytotoxicity against human DU145 cells after 72 hrs by CellTiter96 AQueous one solution cell proliferation assay; assay type: functional, cell-based
HPAC = experiment: Cytotoxicity against human HPAC cells after 72 hrs by CellTiter96 AQueous one solution cell proliferation assay; assay type: functional, cell-based
SW-620 = experiment: Cytotoxicity against human SW620 cells after 72 hrs by CellTiter96 AQueous one solution cell proliferation assay; assay type: functional, cell-based
COLO 320 = experiment: Cytotoxicity against human COLO320 cells after 72 hrs by CellTiter96 AQueous one solution cell proliferation assay; assay type: functional, cell-based
HS-Sultan = experiment: Cytotoxicity against human HS-Sultan cells after 72 hrs by CellTiter96 AQueous one solution cell proliferation assay; assay type: functional, cell-based
HeLa = experiment: Cytotoxicity against human HeLa cells after 72 hrs by CellTiter96 AQueous one solution cell proliferation assay; assay type: functional, cell-based
NCI-H2122 = experiment: Cytotoxicity against human NCI-H2122 cells after 72 hrs by CellTiter96 AQueous one solution cell proliferation assay; assay type: functional, cell-based
Homo sapiens [13] = species: Homo sapiens; experiment: Cytotoxicity against human H2935 cells after 72 hrs by CellTiter96 AQueous one solution cell proliferation assay; assay type: functional, cell-based

T1 sequence (O14980 whole entry, the tested form may be a part): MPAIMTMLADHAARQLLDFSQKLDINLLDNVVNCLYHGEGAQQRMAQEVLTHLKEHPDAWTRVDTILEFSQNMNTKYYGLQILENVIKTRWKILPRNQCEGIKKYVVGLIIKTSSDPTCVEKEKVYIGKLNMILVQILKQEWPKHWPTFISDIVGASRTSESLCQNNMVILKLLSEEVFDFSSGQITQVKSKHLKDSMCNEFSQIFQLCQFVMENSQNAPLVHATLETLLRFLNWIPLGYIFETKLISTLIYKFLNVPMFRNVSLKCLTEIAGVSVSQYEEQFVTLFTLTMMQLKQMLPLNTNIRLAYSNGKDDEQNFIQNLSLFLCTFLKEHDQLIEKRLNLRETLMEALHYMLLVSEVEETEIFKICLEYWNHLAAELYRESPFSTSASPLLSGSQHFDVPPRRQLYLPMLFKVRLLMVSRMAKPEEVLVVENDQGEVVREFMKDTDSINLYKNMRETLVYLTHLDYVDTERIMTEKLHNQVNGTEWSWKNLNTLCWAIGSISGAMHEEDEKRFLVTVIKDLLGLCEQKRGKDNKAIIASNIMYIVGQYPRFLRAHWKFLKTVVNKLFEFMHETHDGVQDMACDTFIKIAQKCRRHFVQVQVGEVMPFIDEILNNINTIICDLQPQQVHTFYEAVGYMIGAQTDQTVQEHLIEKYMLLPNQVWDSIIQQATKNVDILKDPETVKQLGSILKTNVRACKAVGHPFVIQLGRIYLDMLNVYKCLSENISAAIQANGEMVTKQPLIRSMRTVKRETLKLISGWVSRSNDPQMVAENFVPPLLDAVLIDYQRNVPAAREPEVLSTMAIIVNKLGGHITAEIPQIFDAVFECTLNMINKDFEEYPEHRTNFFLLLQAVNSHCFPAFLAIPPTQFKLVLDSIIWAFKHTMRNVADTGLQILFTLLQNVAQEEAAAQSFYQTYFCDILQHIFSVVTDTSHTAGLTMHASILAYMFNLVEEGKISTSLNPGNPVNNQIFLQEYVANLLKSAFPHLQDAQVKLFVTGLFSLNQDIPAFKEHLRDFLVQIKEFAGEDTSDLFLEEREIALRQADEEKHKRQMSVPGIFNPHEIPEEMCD

Which Activity (Jurkat) does the source give for `CC(C)OC(=O)/C=C\n1cnc(-c2ccc(Cl)cc2)n1` here?
The Activity was “Active”.

And the IC50 (Exportin-1 [1])?
The IC50 was no more than 1000 nM.

What about the Activity (PC-3) of the same compound?
The Activity was “Active”.

What about the Activity (MCF7) of the same compound?
Its Activity is “Active”.

And the Activity (4T1)?
Its Activity is “Active”.

What about the Activity (BL-41) of the same compound?
The Activity was “Active”.

What about the Activity (Homo sapiens [2]) of the same compound?
Its Activity is “Active”.

And the inhibition (Exportin-1 [3])?
The inhibition was “Active”.

What about the Activity (HCC827) of the same compound?
Its Activity is “Active”.

What about the Activity (786-0) of the same compound?
The Activity was “Active”.

And the TGI (MM1.S [4])?
Its TGI is “Active”.

And the Activity (LS180)?
The Activity was “Active”.

What about the Activity (NCI-H520) of the same compound?
The Activity was “Active”.

What about the TGI [5] of the same compound?
Its TGI is 60%.

What about the inhibition (Exportin-1 [6]) of the same compound?
The inhibition was “Active”.

What about the Activity (NCI-H460) of the same compound?
Its Activity is “Active”.

And the Activity [7]?
The Activity was “Non-Toxic”.

What about the Activity (MG-63) of the same compound?
Its Activity is “Active”.

And the inhibition (Exportin-1 [8])?
Its inhibition is “Active”.

What about the Activity (NCI-H2030) of the same compound?
The Activity was “Active”.

And the TGI (MM1.S [9])?
Its TGI is “Active”.

And the Activity (DLD-1)?
The Activity was “Active”.

And the Activity (HCT-116)?
The Activity was “Active”.

And the Activity (NCI-H226)?
Its Activity is “Active”.

What about the Activity (Caov-3) of the same compound?
Its Activity is “Active”.

What about the Activity (RPMI18226) of the same compound?
Its Activity is “Active”.

And the Activity (WiDr)?
The Activity was “Active”.

What about the Activity (SW480) of the same compound?
Its Activity is “Active”.

What about the inhibition in vivo at 75 mg/kg [10] of the same compound?
Its inhibition in vivo at 75 mg/kg is 31%.

What about the Activity (MM1R) of the same compound?
The Activity was “Active”.

What about the Activity [11] of the same compound?
The Activity was “Non-Toxic”.

What about the Activity (LoVo) of the same compound?
Its Activity is “Active”.

What about the inhibition (Exportin-1 [12]) of the same compound?
The inhibition was “Active”.

What about the Activity (HCT-15) of the same compound?
Its Activity is “Active”.

And the Activity (HCT-8)?
The Activity was “Active”.

What about the Activity (NCI-H1838) of the same compound?
Its Activity is “Active”.

What about the Activity (HCC4006) of the same compound?
The Activity was “Active”.

And the Activity (DU-145)?
The Activity was “Active”.

What about the Activity (HPAC) of the same compound?
The Activity was “Active”.

And the Activity (SW-620)?
The Activity was “Active”.

What about the Activity (COLO 320) of the same compound?
Its Activity is “Active”.

And the Activity (HS-Sultan)?
The Activity was “Active”.

And the Activity (HeLa)?
The Activity was “Active”.

And the Activity (NCI-H2122)?
Its Activity is “Active”.

And the Activity (Homo sapiens [13])?
Its Activity is “Active”.
